One assay deals with ATR/ATRIP (Homo sapiens (Human), UniProt Q13535). Description: ATR/ATRIP kinase assay (TR-FRET, p53 Ser15 phosphorylation). The format is biochemical. The following applies: 0.5 μM ATP, 50 nM p53. As to the method: ATR/ATRIP Kinase Assay—Measurement of ATR/ATRIP Inhibition
The IC50 value was determined by an ATR/ATRIP enzymatic assay. The assay comprises two steps: the enzymatic reaction and the detection step. First, a mixture of ATR/ATRIP protein (Ataxia Telangiectasia and Rad3-related protein/ATR interacting protein), the compound in question at different concentrations, p53 as substrate protein and adenosine triphosphate (ATP) are incubated in assay buffer. ATR phosporylates p53 at Ser15 and other residues. The amount of phosphorylated p53 is then detected using specific antibodies and the TR-FRET assay technology.
In detail: The ATR/ATRIP enzymatic assay is performed as a TR-FRET-(HTRF™, Cisbio Bioassays) based 384-well assay. In a first step, purified human recombinant ATR/ATRIP (human ATR, full length, GenBank ID: NM_001184.3, and human ATRIP, full length, GenBank ID AF451323.1, co-expressed in a mammalian cell line) is incubated in assay buffer for 15 minutes at 22° C. with test compound at different concentrations or without test compound (as a negative control). The assay buffer contains 25 mM HEPES pH 8.0, 10 mM Mg(CH3COO)2, 1 mM MnCl2, 0.1% BSA, 0.01% Brij® 35, and 5 mM dithiothreitol (DTT). An Echo 555 (Labcyte) is used for dispensing of compound solutions. Then, in a second step, purified human recombinant cmyc-tagged p53 (human p53, full length, GenBank ID: BC003596, expressed in Sf21 insect cells) and ATP are added and the reaction mixture is incubated for 25-35 minutes, typically 25 minutes, at 22° C. The pharmacologically relevant assay volume is 5 μl. The final concentrations in the assay during incubation of the reaction mixture are 0.3-0.5 nM, typically 0.3 nM, ATR/ATRIP, 50 nM p53, and 0.5 μM ATP. The enzymatic reaction is stopped by the addition of EDTA. The generation of phosphorylated p53 as a result of the ATR mediated reaction in the presence of ATP is detected by using specific antibodies [labeled with the fluorophores europium (Eu) as donor and d2 as acceptor (Cisbio Bioassays)] enabling FRET. For this purpose, 2 μl of antibody-containing stop solution (12.5 mM HEPES pH 8.0, 125 mM EDTA, 30 mM sodium chloride, 300 mM potassium fluoride, 0.006% Tween-20, 0.005% Brij® 35, 0.21 nM anti-phospho-p53(Ser15)-Eu antibody, 15 nM anti-cmyc-d2 antibody) are added to the reaction mixture. Following signal development for 2 h the plates are analyzed in an EnVision (PerkinElmer) microplate reader using the TRF mode with laser excitation. Upon excitation of the donor europium at 340 nm the emitted fluorescence light of the acceptor d2 at 665 nm as well as from the donor Eu at 615 nm are measured. The amount of phosphorylated p53 is directly proportional to the ratio of the amounts of emitted light i.e. the ratio of the relative fluorescence units (rfu) at 665 nm and 615 nm. Data are processed employing the Genedata Screener software. In particular, IC50 values are determined in the usual manner by fitting a dose-response curve to the data points using nonlinear regression analysis. • IC50=half maximal inhibitory concentration • ATP=Adenosine triphosphate • TR-FRET=Time-Resolved Fluorescence Resonance Energy Transfer • HTRF®=Homogeneous Time Resolved Fluorescence • HEPES=2-(4-(2-Hydroxyethyl)-1-piperazinyl)-ethanesulfonic acid • Mg(CH3COO)2=Magnesium acetate • MnCl2=Manganese(II)-chloride • BSA=Bovine Serum Albumin • EDTA=Ethylendiamine Tetraacetate • TRF=Time Resolved Fluorescence pCHK1 Cellular Assay
On the technique in general: In TR-FRET formats the signal depends on donor and acceptor labels being close together.

Assay [1] deals with phosphorylation of Chk1 (Ser 345) in HT29 colon adenocarcinoma cells. Description: pCHK1 cellular assay. Type of assay: cell-based. The following applies: Homo sapiens, HT-29, hydroxyurea 3 mM, 4 h. The source says: Chk1 kinase acts downstream of ATR and has a key role in DNA damage checkpoint control. Activation of Chk1 involves phosphorylation of Ser317 and Ser345 (regarded as the preferential target for phosphorylation/activation by ATR) and occurs in response to blocked DNA replication and certain forms of genotoxic stress. Phosphorylation at Ser 345 serves to localize Chk1 to the nucleus following checkpoint activation.
This assay measures a decrease in phosphorylation of Chk1 (Ser 345) in HT29 colon adenocarcinoma cells following treatment with compound and hydroxyurea (which promotes fork stalling because of dNTP depletion) and using an immunocytochemical procedure and high content imaging.
For the assay HT29 cells are plated in culture medium (DMEM high Glucose (no phenol red), 2 mM Glutamax, 1 mM Pyruvate, 10% FCS into Greiner 384 well plates, black, μclear #781090 (2500 cells/well/30 μl) and incubated for at least 20 hours at 37° C., 10% CO2 and 90% rH. Diluted test compounds (1 nM-30 μM final) and hydroxyurea (3 mM final) are added simultaneously and cells are incubated for 4 h at 37° C. After fixation/prmeabilisation with 100% MeOH (−20° C. cold) and permeabilisation with 0.2% Triton X-100 a complete immunocytochemical procedure is performed using a specific anti-pChk1 antibody (Cell Signaling, #2348BF) and fluorescently labelled secondary antibody (Alexa Fluor® 488 goat anti-rabbit F(ab′)2 fragment, Invitrogen A11070) and parallel nuclear staining for cell counting.
The nuclear localised pChk1 signal is detected on an ImageXpress Ultra confocal high content reader and reported as % positive cells (nuclei).

Results on 19 compounds are retold here after patent US12371430B2, “5-morpholin-4-yl-pyrazolo[4,3-b]pyridine derivatives” (Merck Patent GmbH, priority 2018, dated 2025).

pIC50: −log10 of the molar value.

One may read the pIC50 as −log10 of the IC50, conventionally taken in molar units.

ATR/ATRIP, sequence (Q13535 whole entry): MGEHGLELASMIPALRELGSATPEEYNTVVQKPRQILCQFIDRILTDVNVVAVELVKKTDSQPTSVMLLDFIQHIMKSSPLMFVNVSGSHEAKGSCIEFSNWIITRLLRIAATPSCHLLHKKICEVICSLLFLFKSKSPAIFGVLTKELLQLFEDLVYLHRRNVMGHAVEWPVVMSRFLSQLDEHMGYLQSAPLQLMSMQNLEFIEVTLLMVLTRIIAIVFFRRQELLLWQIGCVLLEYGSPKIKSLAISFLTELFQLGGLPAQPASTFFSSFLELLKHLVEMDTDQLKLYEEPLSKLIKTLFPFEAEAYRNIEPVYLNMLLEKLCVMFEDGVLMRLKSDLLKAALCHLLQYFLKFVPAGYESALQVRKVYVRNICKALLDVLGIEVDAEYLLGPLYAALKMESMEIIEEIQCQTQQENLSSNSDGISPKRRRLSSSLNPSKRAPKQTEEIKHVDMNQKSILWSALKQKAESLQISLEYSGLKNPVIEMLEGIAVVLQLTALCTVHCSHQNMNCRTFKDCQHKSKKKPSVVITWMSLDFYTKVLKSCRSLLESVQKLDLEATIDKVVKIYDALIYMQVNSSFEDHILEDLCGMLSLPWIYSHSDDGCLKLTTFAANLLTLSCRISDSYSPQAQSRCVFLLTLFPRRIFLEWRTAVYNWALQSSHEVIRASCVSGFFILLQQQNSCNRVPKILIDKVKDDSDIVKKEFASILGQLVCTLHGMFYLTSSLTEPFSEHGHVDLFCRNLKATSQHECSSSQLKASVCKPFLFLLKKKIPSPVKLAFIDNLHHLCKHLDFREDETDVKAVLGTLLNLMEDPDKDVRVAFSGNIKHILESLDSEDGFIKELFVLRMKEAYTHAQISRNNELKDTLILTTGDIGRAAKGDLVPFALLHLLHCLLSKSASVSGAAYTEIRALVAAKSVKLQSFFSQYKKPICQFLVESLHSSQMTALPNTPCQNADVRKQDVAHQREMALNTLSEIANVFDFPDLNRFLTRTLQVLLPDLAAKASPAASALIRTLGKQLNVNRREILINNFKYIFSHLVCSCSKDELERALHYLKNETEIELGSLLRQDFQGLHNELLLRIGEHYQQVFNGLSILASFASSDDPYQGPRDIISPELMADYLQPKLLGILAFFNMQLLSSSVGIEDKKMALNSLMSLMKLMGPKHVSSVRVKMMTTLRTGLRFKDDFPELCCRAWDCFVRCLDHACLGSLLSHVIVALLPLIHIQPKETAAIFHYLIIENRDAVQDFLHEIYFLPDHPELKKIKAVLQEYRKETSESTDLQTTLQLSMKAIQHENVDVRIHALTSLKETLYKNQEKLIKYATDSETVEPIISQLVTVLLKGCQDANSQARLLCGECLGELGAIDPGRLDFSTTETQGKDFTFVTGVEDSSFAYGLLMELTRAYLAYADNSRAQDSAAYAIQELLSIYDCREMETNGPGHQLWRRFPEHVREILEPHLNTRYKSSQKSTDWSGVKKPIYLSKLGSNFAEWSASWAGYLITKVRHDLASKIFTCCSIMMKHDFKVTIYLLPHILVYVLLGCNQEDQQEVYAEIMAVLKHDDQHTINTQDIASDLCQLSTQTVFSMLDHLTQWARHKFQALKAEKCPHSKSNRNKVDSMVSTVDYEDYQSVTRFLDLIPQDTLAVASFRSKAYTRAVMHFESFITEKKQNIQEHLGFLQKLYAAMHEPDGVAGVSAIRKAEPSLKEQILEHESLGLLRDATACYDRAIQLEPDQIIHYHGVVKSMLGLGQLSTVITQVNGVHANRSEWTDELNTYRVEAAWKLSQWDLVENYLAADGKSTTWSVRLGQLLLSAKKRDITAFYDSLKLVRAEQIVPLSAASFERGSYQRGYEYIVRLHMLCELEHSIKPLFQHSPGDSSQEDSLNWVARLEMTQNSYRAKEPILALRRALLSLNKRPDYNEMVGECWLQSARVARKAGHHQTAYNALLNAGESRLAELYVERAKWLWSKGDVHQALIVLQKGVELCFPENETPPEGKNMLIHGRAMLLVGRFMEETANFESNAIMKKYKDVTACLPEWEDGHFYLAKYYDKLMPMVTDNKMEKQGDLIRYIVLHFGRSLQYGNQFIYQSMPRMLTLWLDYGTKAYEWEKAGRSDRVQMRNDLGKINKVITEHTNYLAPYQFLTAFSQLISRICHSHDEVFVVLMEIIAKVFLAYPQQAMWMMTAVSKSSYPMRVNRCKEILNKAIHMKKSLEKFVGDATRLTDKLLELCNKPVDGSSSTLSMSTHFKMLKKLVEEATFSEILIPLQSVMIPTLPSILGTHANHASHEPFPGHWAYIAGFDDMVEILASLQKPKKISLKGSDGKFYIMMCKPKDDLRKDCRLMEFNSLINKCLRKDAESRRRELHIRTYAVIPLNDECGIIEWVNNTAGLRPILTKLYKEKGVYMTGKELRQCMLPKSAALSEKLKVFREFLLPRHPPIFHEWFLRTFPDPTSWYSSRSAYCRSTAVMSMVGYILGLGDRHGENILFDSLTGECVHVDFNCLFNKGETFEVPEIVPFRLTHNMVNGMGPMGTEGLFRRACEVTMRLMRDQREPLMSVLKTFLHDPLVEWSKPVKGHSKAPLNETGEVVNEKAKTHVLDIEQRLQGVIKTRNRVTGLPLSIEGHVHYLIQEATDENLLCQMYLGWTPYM
ATR/ATRIP, sequence (Q8WXE1 whole entry partner): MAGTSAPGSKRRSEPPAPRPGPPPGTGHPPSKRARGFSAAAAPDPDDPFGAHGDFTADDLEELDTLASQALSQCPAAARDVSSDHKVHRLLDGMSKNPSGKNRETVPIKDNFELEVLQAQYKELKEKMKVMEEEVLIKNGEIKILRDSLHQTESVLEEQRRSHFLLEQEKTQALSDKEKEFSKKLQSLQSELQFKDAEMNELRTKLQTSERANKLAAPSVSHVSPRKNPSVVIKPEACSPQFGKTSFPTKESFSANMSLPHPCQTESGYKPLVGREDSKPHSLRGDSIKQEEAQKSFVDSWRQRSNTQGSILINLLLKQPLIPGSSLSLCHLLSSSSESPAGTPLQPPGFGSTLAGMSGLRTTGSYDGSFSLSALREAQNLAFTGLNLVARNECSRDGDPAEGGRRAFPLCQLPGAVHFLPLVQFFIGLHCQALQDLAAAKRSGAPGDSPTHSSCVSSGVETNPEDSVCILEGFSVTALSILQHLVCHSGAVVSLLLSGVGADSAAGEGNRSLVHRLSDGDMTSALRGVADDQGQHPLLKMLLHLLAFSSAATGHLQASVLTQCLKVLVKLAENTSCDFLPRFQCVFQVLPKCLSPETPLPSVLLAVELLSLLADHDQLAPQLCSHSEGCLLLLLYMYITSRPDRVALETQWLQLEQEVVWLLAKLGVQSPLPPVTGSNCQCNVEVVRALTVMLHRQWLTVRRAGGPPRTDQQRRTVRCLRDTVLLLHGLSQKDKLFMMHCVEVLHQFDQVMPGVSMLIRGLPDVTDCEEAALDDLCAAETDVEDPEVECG

At ATR/ATRIP, `Cc1nc(S(C)(=O)=O)ccc1-c1cc(N2CCOC[C@H]2C)nc2c(-c3cc(C(F)(F)F)n[nH]3)nn(C)c12` [Compound 74, (3R)-4-[7-(6-Methanesulfonyl-2-methylpyridin-3-yl)-1-methyl-3-[3-(trifluoromethyl)-1H-pyrazol-5-yl]-1H-pyrazolo[4,3-b]pyridin-5-yl]-3-methyl-morpholine] had a pIC50 of 7.77.
`C[C@@H]1COCCN1c1cc(C(=O)N(C)C)c2c(n1)c(-c1cc[nH]n1)nn2C` [Compound 30, 1-Methyl-5-((R)-3-methyl-morpholin-4-yl)-3-(1H-pyrazol-3-yl)-1H-pyrazolo[4,3-b]pyridine-7-carboxylic acid dimethylamide]: the pIC50 on ATR/ATRIP is 7.82; in assay [1], 6.00 to 7.00.
Turning to `C[C@@H]1COCCN1c1cc(C(N)=O)c2c(n1)c(-c1cc[nH]n1)nn2C` [Compound 32, 1-Methyl-5-((R)-3-methyl-morpholin-4-yl)-3-(1H-pyrazol-3-yl)-1H-pyrazolo[4,3-b]pyridine-7-carboxylic acid amide], the values for the pIC50 (against ATR/ATRIP; in assay [1]) were 7.70 and 5.00 to 6.00, respectively.
Take `Cc1cnccc1-c1cc(N2CCOC[C@H]2C)nc2c(-c3cc[nH]n3)nn(C)c12` [Compound 23, 1-Methyl-5-((R)-3-methyl-morpholin-4-yl)-7-(3-methyl-pyridin-4-yl)-3-(1H-pyrazol-3-yl)-1H-pyrazolo[4,3-b]pyridine]: the pIC50 was 9.00 on ATR/ATRIP and 7.00 to 8.00 in assay [1].
As for `C[C@@H]1COCCN1c1ccc2c(n1)c(-c1cc[nH]n1)nn2CCc1ccncc1` [Compound 77, (3R)-3-Methyl-4-[3-(1H-pyrazol-3-yl)-1-[2-(pyridin-4-yl)ethyl]-1H-pyrazolo[4,3-b]pyridin-5-yl]morpholine], the pIC50 was 7.24 against ATR/ATRIP and 5.00 to 6.00 in assay [1].
The corresponding values for `Cc1nc(S(C)(=O)=O)ccc1-c1cc(N2CCOC[C@H]2C)nc2c(-c3cc[nH]n3)n[nH]c12` [Compound 12, 7-(6-Methanesulfonyl-2-methyl-pyridin-3-yl)-5-((R)-3-methyl-morpholin-4-yl)-3-(1H-pyrazol-3-yl)-1H-pyrazolo[4,3-b]pyridine] are 9.10 and 6.00 to 7.00.
As for `C[C@@H]1COCCN1c1ccc2c(n1)c(-c1cc[nH]n1)nn2Cc1cccnc1` [Compound 83, (3R)-3-Methyl-4-[3-(1H-pyrazol-3-yl)-1-[(pyridin-3-yl)methyl]-1H-pyrazolo[4,3-b]pyridin-5-yl]morpholine], in assay [1], the pIC50 was 5.00 to 6.00.
In turn, `Cc1c(-c2cc(N3CCOC[C@H]3C)nc3c(-c4cc[nH]n4)nn(C)c23)nnn1C` [Compound 84, (3R)-4-[7-(1,5-Dimethyl-1H-1,2,3-triazol-4-yl)-1-methyl-3-(1H-pyrazol-3-yl)-1H-pyrazolo[4,3-b]pyridin-5-yl]-3-methylmorpholine] had a pIC50 in assay [1] of 7.00 to 8.00.
`CC(C)n1nc(-c2cc[nH]n2)c2nc(N3CCOC[C@H]3C)ccc21` [Compound 73, (3R)-3-Methyl-4-[1-(propan-2-yl)-3-(1H-pyrazol-3-yl)-1H-pyrazolo[4,3-b]pyridin-5-yl]morpholine]: the pIC50 is 7.55 at ATR/ATRIP and 6.00 to 7.00 in assay [1].
For the compound `Cc1nc([S@@+](C)[O-])ccc1-c1cc(N2CCOC[C@H]2C)nc2c(-c3cc[nH]n3)nn(C)c12` [Compound 10, (3R)-4-(7-{6-[(R)-Methanesulfinyl]-2-methylpyridin-3-yl}-1-methyl-3-(1H-pyrazol-3-yl)-1H-pyrazolo[4,3-b]pyridin-5-yl)-3-methylmorpholine], the pIC50 is 8.72 against ATR/ATRIP and 7.00 to 8.00 in assay [1].
With `C[C@@H]1COCCN1c1cc(-c2ccc(C(F)(F)F)nc2)c2c(n1)c(-c1cc[nH]n1)nn2C` [Compound 65, (3R)-3-Methyl-4-[1-methyl-3-(1H-pyrazol-3-yl)-7-[6-(trifluoro-methyl)pyridin-3-yl]-1H-pyrazolo[4,3-b]pyridin-5-yl]morpholine], the figures for the negative-log IC50 (pIC50) (against ATR/ATRIP; in assay [1]) were 8.24 and 6.00 to 7.00, respectively.
For the compound `C[C@@H]1COCCN1c1cc(C(=O)N(C)C)c2[nH]nc(-c3cc[nH]n3)c2n1` [Compound 27, 5-((R)-3-Methyl-morpholin-4-yl)-3-(1H-pyrazol-3-yl)-1H-pyrazolo[4,3-b]pyridine-7-carboxylic acid dimethylamide], the pIC50 on ATR/ATRIP was 8.00; in assay [1], 6.00 to 7.00.
Take `C[C@@H]1COCCN1c1cc(C2=CCSCC2)c2c(n1)c(-c1ccn[nH]1)nn2C` [Compound 79, (3R)-4-[7-(3,6-Dihydro-2H-thiopyran-4-yl)-1-methyl-3-(1H-pyrazol-5-yl)-1H-pyrazolo[4,3-b]pyridin-5-yl]-3-methylmorpholine]: the pIC50 in assay [1] was 7.00 to 8.00.
On the same count and under the same terms, next, `C[C@@H]1COCCN1c1cc([C@H]2CCOC2)c2c(n1)c(-c1ccn[nH]1)nn2C` [Compound 72, 1-Methyl-5-((R)-3-methyl-morpholin-4-yl)-3-(2H-pyrazol-3-yl)-7-(R)-tetrahydro-furan-3-yl-1H-pyrazolo[4,3-b]pyridine]: 7.00 to 8.00; `C[C@@H]1COCCN1c1cc(C2=CC[S+]([O-])CC2)c2c(n1)c(-c1ccn[nH]1)nn2C` (stereo partly drawn) [Compound 80, 4-[1-Methyl-5-[(3R)-3-methylmorpholin-4-yl]-3-(1H-pyrazol-5-yl)-1H-pyrazolo[4,3-b]pyridin-7-yl]-3,6-dihydro-2H-1lambda4-thiopyran-1-one]: 6.00 to 7.00.
Consider `Cc1cc(S(C)(=O)=O)ncc1-c1cc(N2CCOC[C@H]2C)nc2c(-c3cc[nH]n3)n(C)nc12` [Compound 21, 7-(6-Methanesulfonyl-4-methyl-pyridin-3-yl)-2-methyl-5-((R)-3-methyl-morpholin-4-yl)-3-(1H-pyrazol-3-yl)-2H-pyrazolo[4,3-b]pyridine], for which, at ATR/ATRIP, the pIC50 is 6.29.
For `C[C@@H]1COCCN1c1cc(C2CCS(=O)(=O)CC2)c2c(n1)c(-c1ccn[nH]1)nn2C` [Compound 82], the pIC50 in assay [1] is 6.00 to 7.00.
On the same count and under the same terms, then `C[C@@H]1COCCN1c1ccc2c(n1)c(-c1cc[nH]n1)nn2Cc1ccccn1` [Compound 88, (3R)-3-Methyl-4-[3-(1H-pyrazol-3-yl)-1-[(pyridin-2-yl)methyl]-1H-pyrazolo[4,3-b]pyridin-5-yl]morpholine], with 5.00 to 6.00.
In the case of `C[C@@H]1COCCN1c1cc(O)c2c(n1)c(-c1ccn[nH]1)nn2C` [Compound 45, 1-Methyl-5-((R)-3-methyl-morpholin-4-yl)-3-(2H-pyrazol-3-yl)-1H-pyrazolo[4,3-b]pyridin-7-ol], at ATR/ATRIP, the pIC50 is 5.74.
